Data reported in the PolyMetriX glass transition set.
± gives the standard deviation of the reports.

Structure (SMILES)	glass transition temperature [°C]
*C(=O)OCCCCCCCCCCCOC(=O)c1ccc(N2C(=O)c3ccc(*)cc3C2=O)cc1 (repeat unit)	49.00
*Oc1ccc(S(=O)(=O)c2ccc(Oc3ccc(NC(=O)c4ccc(Oc5ccc(C(C)(C)c6cccc(C(C)(C)c7ccc(Oc8ccc(C(=O)Nc9ccc(*)cc9)cc8)cc7)c6)cc5)cc4)cc3)cc2)cc1 (repeat unit)	167.00
*c1ccc(Oc2ccc(C(C)(C)c3ccc(Oc4ccc(-c5nnc(*)n5-c5ccc(S(=O)(=O)c6ccccc6)cc5)cc4)cc3)cc2)cc1 (repeat unit)	198.00
*OC(CCc1ccccc1)CC(*)=O (repeat unit)	18.00
*OC(=O)OC1COC2C(*)COC12 (repeat unit)	140.00
*C(=O)Nc1c(C)cc(Cc2cc(C)c(NC(=O)c3ccc4c(c3)C(=O)N(c3ccc(/N=N/c5ccc(F)cc5)c(N5C(=O)c6ccc(*)cc6C5=O)c3)C4=O)c(C)c2)cc1C (repeat unit)	279.00
*C(=O)Nc1ccc(Oc2ccc(S(=O)(=O)c3ccc(Oc4ccc(NC(=O)c5ccc6c(c5)C(=O)N(c5ccc(Oc7cccc8c(Oc9ccc(N%10C(=O)c%11ccc(*)cc%11C%10=O)cc9)cccc78)cc5)C6=O)cc4)cc3)cc2)cc1 (repeat unit)	260.00
*c1ccc(Oc2cccc(-c3cc(-c4ccccc4)cc(-c4cccc(Oc5ccc(N6C(=O)c7ccc(Oc8ccc9c(c8)C(=O)N(*)C9=O)cc7C6=O)cc5)c4)n3)c2)cc1 (repeat unit)	224.00
*CCCCC(=O)Oc1ccc(-c2ccc(OC(=O)c3ccc4c(c3)C(=O)N(*)C4=O)cc2)cc1 (repeat unit)	123.00
*CCCCCCCCCC[N+](*)(C)C (repeat unit)	65.90
*CCCCCCCCCCCC(=O)Oc1ccc(C2(c3ccc(OC(=O)c4ccc5c(c4)C(=O)N(*)C5=O)cc3)OC(=O)c3ccccc32)cc1 (repeat unit)	114.00
*c1ccc(Oc2ccc(-c3ccc(Oc4ccc(N5C(=O)c6ccc(Oc7ccc(Oc8ccc(Oc9ccc%10c(c9)C(=O)N(*)C%10=O)cc8)cc7)cc6C5=O)cc4)cc3)cc2)cc1 (repeat unit)	211.00
*CCC1CC(OC(=O)CCCCCCCCCCOc2ccc(-c3ccc(C#N)cc3)cc2)CC1* (repeat unit)	24.00
*c1ccc(-c2ccc(-c3cc(-c4ccc(Oc5ccc(-c6ccccc6)cc5)cc4)c4cc(-c5ccc6nc(*)cc(-c7ccc(Oc8ccc(-c9ccccc9)cc8)cc7)c6c5)ccc4n3)cc2)cc1 (repeat unit)	364.00
*CCCCCCCCCOC(=O)c1ccc2cc(C(=O)O*)ccc2c1 (repeat unit)	50.00
*CCN(*)C(=O)CCCCCCCCCCCCCCCCC (repeat unit)	10.00
*Oc1ccc(P(=O)(c2ccccc2)c2ccc(Oc3ccc(-c4ccc(*)cc4)cc3)cc2)cc1 (repeat unit)	234.00
*Sc1ccc2c(c1)Sc1ccc(*)cc1S2 (repeat unit)	209.90
*N/C(C#N)=C(\C#N)NC(=O)c1ccc(C(*)=O)cc1 (repeat unit)	232.00
*CC(*)(C)C(=O)Oc1ccc(C(=O)O)cc1 (repeat unit)	110.00

Structure (SMILES)	glass transition temperature [°C]
*c1ccc(-c2ccc(-n3c(-c4ccc(Oc5ccc(S(=O)(=O)c6ccc(Oc7ccc(-c8nc9ccccc9n8*)cc7)cc6)cc5)cc4)nc4ccccc43)cc2)cc1 (repeat unit)	289.00
*CC(*)c1ccc(Cl)c(F)c1 (repeat unit) [Poly(3-fluoro-4-chloro styrene) ]	122 ± 0.6
*/C=[CH]/[Ge](/[CH]=C/[Si](*)(c1ccccc1)c1ccccc1)([c]1ccccc1)[c]1ccccc1 (repeat unit)	28.00
*CCS* (repeat unit) [Poly(ethylene sulfide)]	-25.83 ± 34
*CC(COCCCCCC)O* (repeat unit)	-85.50
*c1ccc(Oc2ccc(C(C)(C)c3cccc(C(C)(C)c4ccc(Oc5ccc(-n6c(=O)c7cc8c(=O)n(*)c(=O)c8cc7c6=O)cc5)cc4)c3)cc2)cc1 (repeat unit)	249.47
*c1cc(C(c2ccc(OCCN(C)c3ccc(/C=C/C4=CC(=C(/C#N)C(=O)OC)/CC(C)(C)C4)cc3)c(N3C(=O)c4ccc(Oc5ccc6c(c5)C(=O)N(*)C6=O)cc4C3=O)c2)(C(F)(F)F)C(F)(F)F)ccc1OCCN(c1ccccc1)c1ccc(/C=C/C2=CC(=C(/C#N)C(=O)OC)/CC(C)(C)C2)cc1 (repeat unit)	207.00
*Oc1ccc(NC(=O)c2cc(-c3ccc(C(=O)OCC)c(C(=O)Nc4ccc(*)cc4)c3)ccc2C(=O)OCC)cc1 (repeat unit)	190.2
*C(=O)c1ccc2c(c1)C(=O)N(c1ccc(C(=O)c3ccc(C(=O)c4ccc(N5C(=O)c6ccc(*)cc6C5=O)cc4)cc3)cc1)C2=O (repeat unit)	286.00
*CCCCCCOC(=O)OCCCCCCOC(=O)OCCCCCCOc1ccc(Oc2ccc(O*)cc2)cc1 (repeat unit)	-13.00
*Oc1ccc(P(C)(=O)c2ccc(*)cc2)cc1 (repeat unit)	238.00
*c1cccc(P(=O)(c2ccc(C(F)(F)F)cc2)c2cccc(N3C(=O)c4ccc(Oc5ccc6c(c5)C(=O)N(*)C6=O)cc4C3=O)c2)c1 (repeat unit)	248.00
*CC(*)(C)C(=O)OCCC1CCCCC1 (repeat unit)	110.00
*c1ccc(Oc2ccc(C(c3ccc(Oc4ccc(-c5ncc(*)o5)cc4C(F)(F)F)cc3)(C(F)(F)F)C(F)(F)F)cc2)c(C(F)(F)F)c1 (repeat unit)	205.00
*CC(F)(F)C(F)(F)C(F)(F)COC(=O)NCCCCCCNC(=O)O* (repeat unit)	16.00
*c1ccc(Oc2ccc(Oc3ccc(N4C(=O)c5ccc(Oc6cccc7c6C(=O)N(*)C7=O)cc5C4=O)cc3)cc2)cc1 (repeat unit)	249.00
*Oc1ccc(Oc2ccc(C(=O)c3ccc(Oc4ccc(Oc5cccc(*)n5)cc4)cc3)cc2)cc1 (repeat unit)	124.00
*Oc1ccc(S(=O)(=O)c2ccc(Oc3ccc(/C=N/N=C/c4ccc(*)cc4)cc3)cc2)cc1 (repeat unit)	151.00
*CCOCCOC(=O)CCC(=O)O* (repeat unit)	-38.20
*CC(*)C(=O)NC(C)C (repeat unit) [Poly(N-isopropyl acrylamide)]	85.2 ± 56

Structure (SMILES)	glass transition temperature [°C]
*Cc1ccc(CNC(=O)CCCCCCCCCC(=O)N*)cc1 (repeat unit)	110.00
*Nc1cccc(NC(=O)c2cc(NC(=O)c3ccncc3)cc(C(*)=O)c2)c1 (repeat unit)	321.00
*CC(*)(C)C(=O)OCCCCCCOc1ccc(C(=O)Oc2ccc(C#N)cc2)cc1 (repeat unit)	43.00
*CCCCCCc1nc2cc(NC(=O)CCCCCCCCC(=O)Nc3ccc4oc(*)nc4c3)ccc2o1 (repeat unit)	86.00
*c1ccc(Oc2ccc(C(C)(C)c3ccc(Oc4ccc(N5C(=O)C6CCC(C7CCC8C(=O)N(*)C(=O)C8C7)CC6C5=O)cc4)cc3)cc2)cc1 (repeat unit)	225.00
*CCOC(=O)CCCCCCCCC(=O)OCCOC(=O)c1ccc(C(=O)O*)cc1 (repeat unit)	-6.50
*C(=O)c1ccc2c(c1)C(=O)N(c1ccc(Cc3ccc(N4C(=O)c5ccc(*)cc5C4=O)c(C)c3)cc1C)C2=O (repeat unit)	297.50 ± 18
*c1ccc(-c2cc(-c3ccc(-c4ccccc4)cc3)cc(-c3ccc(N4C(=O)c5ccc(NC(=O)Nc6ccc(NC(=O)Nc7ccc8c(c7)C(=O)N(*)C8=O)cc6)cc5C4=O)cc3)n2)cc1 (repeat unit)	243.00
*OP(=O)(Oc1ccc(Cl)cc1)Oc1ccc(C(C)(C)c2ccc(*)cc2)cc1 (repeat unit)	71.00
*Oc1ccc(OC(=O)c2cc(OCCCCCCCOCC3CCCN3c3ccc([N+](=O)[O-])cc3)c(C(*)=O)cc2OCCCCCCCOCC2CCCN2c2ccc([N+](=O)[O-])cc2)cc1 (repeat unit)	50.00
*CC(CO*)(CSC(C)C)CSC(C)C (repeat unit)	-9.00
*c1ccc(Oc2ccc(-c3ccc(Oc4ccc(N5C(=O)c6ccc(Oc7ccc8cc(Oc9ccc%10c(c9)C(=O)N(*)C%10=O)ccc8c7)cc6C5=O)cc4)cc3)cc2)cc1 (repeat unit)	230.00
*c1ccc(S(=O)(=O)c2ccc(-n3nccc3-c3cccc(-c4ccnn4*)c3)cc2)cc1 (repeat unit)	218.00
*Oc1ccc(NC(=O)c2ccc(Oc3ccc(C(C)(C)c4cccc(C(C)(C)c5ccc(Oc6ccc(C(=O)Nc7ccc(Oc8ccc(-c9ccc(*)cc9)cc8)cc7)cc6)cc5)c4)cc3)cc2)cc1 (repeat unit)	167.00
*CC(*)c1cc(-c2ccc(C(=O)OC(C)CC)cc2)ccc1-c1ccc(C(=O)OC(C)CC)cc1 (repeat unit)	212.50
*c1ccc(C(=O)Nc2ccc(Oc3ccc(S(=O)(=O)c4ccc(Oc5ccc(NC(=O)c6ccc(N7C(=O)c8ccc(-c9cccc%10c9C(=O)N(*)C%10=O)cc8C7=O)cc6)cc5)cc4)cc3)cc2)cc1 (repeat unit)	287.00
*Oc1ccc(CC(NC(=O)Cc2ccc(OC(=O)CCCCC(*)=O)cc2)C(=O)OCC)cc1 (repeat unit)	63.00
*c1cccc(OCCCCCCCCCOc2cccc(N3C(=O)c4ccc(-c5cccc6c5C(=O)N(*)C6=O)cc4C3=O)c2)c1 (repeat unit)	134.00
*c1ccc(CC(=O)Nc2ccc(NC(=O)Cc3ccc(-c4sc(*)c(-c5ccccc5)c4-c4ccccc4)cc3)cc2)cc1 (repeat unit)	251.00
*c1ccc(Oc2ccc(S(=O)(=O)c3ccc(Oc4ccc(N5C(=O)c6ccc(Oc7ccc(C(C)(C)c8ccc(Oc9ccc%10c(c9)C(=O)N(*)C%10=O)cc8)cc7)cc6C5=O)cc4)cc3)cc2)cc1 (repeat unit)	200.00
